Experimental data published in US10561650B2, “Method for treating a protozoal infection” (priority 2013, dated 2020).

Tested on: L. donovani promastigotes
Assay: Cultured L. donovani promastigotes exposed to drugs alone or in two-drug combinations
Assay type: cell-based
Conditions: typical serum concentrations (e.g. 5 ug/ml); DMEM culture medium; after 144 hours in culture

| SMILES | reduction of promastigotes compared to control |
| --- | --- |
| CCC(C)n1ncn(-c2ccc(N3CCN(c4ccc(OCC5COC(Cn6cncn6)(c6ccc(Cl)cc6Cl)O5)cc4)CC3)cc2)c1=O (centres unmarked) [itraconazole] | ~50% |
| Cc1ncc([N+](=O)[O-])n1CCO [metronidazole] | ~50% |
